Experimental findings from US12122763B2, “Substituted piperidines for androgen receptor degradation” (UBIX THERAPEUTICS, INC., priority 2020, dated 2024) are described below.

The inhibition is the change of the read-out against control, counted positive when it falls.

For the experiment, the target named is T1, Androgen Receptor (AR) protein (Homo sapiens, UniProt P10275, T878A).
T1 construct: endogenous in cells; host or cells: LNCaP
In words: Androgen Receptor (AR) protein degradation assay in LNCaP cells, western blotting. The following applies: 20 h; for inhibition at 0.01 µM: 0.01 μM compound; for inhibition at 0.1 µM: 0.1 μM compound; for inhibition at 1 µM: 1 μM compound; for inhibition at 10 µM: 10 μM compound. Format: cell-based. The gist of the method: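 LNCaP prostate cancer cells were cultured 3 days, then treated with compound for 20 h. Lysates in 1% SDS buffer were normalised by BCA, and 8 μg protein was run on 4–12% Bis-Tris gels. AR was immunoblotted with chemiluminescence, using GAPDH/β-actin as loading controls.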

T1 sequence (P10275 whole entry T878A): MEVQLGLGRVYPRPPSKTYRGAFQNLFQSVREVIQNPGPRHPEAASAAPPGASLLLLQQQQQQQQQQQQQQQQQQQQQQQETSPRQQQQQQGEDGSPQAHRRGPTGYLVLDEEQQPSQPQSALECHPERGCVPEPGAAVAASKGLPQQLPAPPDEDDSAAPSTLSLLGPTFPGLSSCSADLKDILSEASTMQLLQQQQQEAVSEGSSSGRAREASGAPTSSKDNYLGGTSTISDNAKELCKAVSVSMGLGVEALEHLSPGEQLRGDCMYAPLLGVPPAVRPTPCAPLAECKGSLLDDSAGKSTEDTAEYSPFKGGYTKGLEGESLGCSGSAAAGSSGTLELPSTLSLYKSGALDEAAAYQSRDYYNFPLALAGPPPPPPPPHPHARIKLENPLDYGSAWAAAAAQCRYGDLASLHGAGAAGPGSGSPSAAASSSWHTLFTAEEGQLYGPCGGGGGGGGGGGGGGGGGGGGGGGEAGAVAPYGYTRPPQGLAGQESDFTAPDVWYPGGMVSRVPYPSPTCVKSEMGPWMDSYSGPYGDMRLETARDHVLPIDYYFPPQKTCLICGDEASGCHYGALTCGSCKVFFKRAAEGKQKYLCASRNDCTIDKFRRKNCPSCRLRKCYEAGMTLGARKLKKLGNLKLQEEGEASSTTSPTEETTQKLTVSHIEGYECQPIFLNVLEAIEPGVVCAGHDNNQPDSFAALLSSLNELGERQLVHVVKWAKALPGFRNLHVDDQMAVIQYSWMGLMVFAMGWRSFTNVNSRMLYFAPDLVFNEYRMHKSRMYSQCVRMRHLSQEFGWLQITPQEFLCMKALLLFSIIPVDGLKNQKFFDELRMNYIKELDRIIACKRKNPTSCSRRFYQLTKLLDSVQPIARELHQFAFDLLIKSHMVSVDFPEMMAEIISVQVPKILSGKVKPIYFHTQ
T1 sequence (Q96SW2 whole entry partner): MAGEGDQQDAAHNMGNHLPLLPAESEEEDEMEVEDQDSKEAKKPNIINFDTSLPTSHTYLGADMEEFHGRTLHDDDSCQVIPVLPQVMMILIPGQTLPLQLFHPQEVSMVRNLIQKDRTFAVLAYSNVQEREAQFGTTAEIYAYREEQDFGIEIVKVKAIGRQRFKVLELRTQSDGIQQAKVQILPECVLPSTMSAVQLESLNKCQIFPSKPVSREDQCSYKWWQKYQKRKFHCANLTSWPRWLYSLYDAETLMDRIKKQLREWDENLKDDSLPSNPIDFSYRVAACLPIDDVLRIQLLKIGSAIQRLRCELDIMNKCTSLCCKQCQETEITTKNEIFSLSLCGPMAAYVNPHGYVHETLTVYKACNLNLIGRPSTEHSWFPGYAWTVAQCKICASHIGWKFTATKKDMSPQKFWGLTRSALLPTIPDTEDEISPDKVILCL

Turning to `CC1(C(=O)Nc2ccc(N3CCC(CN4CC5(CCN(c6ccc7c(c6)C(=O)N(C6CCC(=O)NC6=O)C7=O)CC5)C4)CC3)cn2)CCN(c2ccc(C#N)c(C(F)(F)F)c2)CC1` (stereo not shown) [Example 51, 1-(4-cyano-3-(trifluoromethyl)phenyl)-N-(5-(4-((7-(2-(2,6-dioxopiperidin-3-yl)-1,3-dioxoisoindolin-5-yl)-2,7-diazaspiro[3.5]nonan-2-yl)methyl)piperidin-1-yl)pyridin-2-yl)-4-methylpiperidine-4-carboxamide], the inhibition at 0.01 µM worked out at 33%, the inhibition at 0.1 µM stood at 85% and the inhibition at 1 µM came out at 94%.
For the compound `N#Cc1ccc(N2CCC(C(=O)Nc3ccc(N4CCN(CCCCOc5ccc6c(c5)C(=O)N(C5CCC(=O)NC5=O)C6=O)CC4)cn3)CC2)cc1Cl` (stereo not shown) [Example 116, 1-(3-chloro-4-cyanophenyl)-N-(5-(4-(4-((2-(2,6-dioxopiperidin-3-yl)-1,3-dioxoisoindolin-5-yl)oxy)butyl)piperazin-1-yl)pyridin-2-yl)piperidine-4-carboxamide], the inhibition at 0.01 µM stood at 24%, the inhibition at 0.1 µM was 43% and the inhibition at 1 µM turned out to be 53%.
On to `N#Cc1ccc(N2CCC(C(=O)Nc3ccc(N4CCC(CN5CC6(C5)CN(c5ccc7c(c5)C(=O)N(C5CCC(=O)NC5=O)C7=O)C6)CC4)cn3)CC2)cc1C(F)(F)F` (stereo not shown) [Example 66, 1-(4-cyano-3-(trifluoromethyl)phenyl)-N-(5-(4-((6-(2-(2,6-dioxopiperidin-3-yl)-1,3-dioxoisoindolin-5-yl)-2,6-diazaspiro[3.3]heptan-2-yl)methyl)piperidin-1-yl)pyridin-2-yl)piperidine-4-carboxamide], for which the inhibition at 0.01 µM is 75.5%, the inhibition at 0.1 µM turned out to be 95.5%, the inhibition at 1 µM is 97% and the inhibition at 10 µM came to 94%.
As for `C[C@H]1CN(CC2CCN(c3ccc(C(=O)NC4CCC(=O)NC4=O)nc3)CC2)CCN1CC1CCN(c2ccc(NC(=O)C3CCN(c4ccc(C#N)c(C(F)(F)F)c4)CC3)nc2)CC1` (stereo partly drawn) [Example 109, 5-(4-(((S)-4-((1-(6-(1-(4-cyano-3-(trifluoromethyl)phenyl)piperidine-4-carboxamido)pyridin-3-yl)piperidin-4-yl)methyl)-3-methylpiperazin-1-yl)methyl)piperidin-1-yl)-N-(2,6-dioxopiperidin-3-yl)picolinamide], the inhibition at 0.01 µM stood at 30%, the inhibition at 0.1 µM turned out to be 82% and the inhibition at 1 µM came out at 83%.
`N#Cc1ccc(N2CCC(O)(C(=O)Nc3ccc(N4CCC(CN5CC6(CCN(c7ccc8c(c7)C(=O)N(C7CCC(=O)NC7=O)C8=O)CC6)C5)CC4)cn3)CC2)cc1C(F)(F)F` (stereo not shown) [Example 55, 1-(4-cyano-3-(trifluoromethyl)phenyl)-N-(5-(4-((7-(2-(2,6-dioxopiperidin-3-yl)-1,3-dioxoisoindolin-5-yl)-2,7-diazaspiro[3.5]nonan-2-yl)methyl)piperidin-1-yl)pyridin-2-yl)-4-hydroxypiperidine-4-carboxamide]: the inhibition at 0.01 µM came to 34%, the inhibition at 0.1 µM worked out at 69% and the inhibition at 1 µM worked out at 95%.
For `N#Cc1ccc(N2CCC(C(=O)Nc3ccc(N4CCC(CN5CCN(CC6CN(c7ccc8c(c7)C(=O)N(C7CCC(=O)NC7=O)C8=O)C6)CC5)CC4)cn3)CC2)cc1Cl` (stereo not shown) [Example 12, 1-(3-chloro-4-cyanophenyl)-N-(5-(4-((4-((1-(2-(2,6-dioxopiperidin-3-yl)-1,3-dioxoisoindolin-5-yl)azetidin-3-yl)methyl)piperazin-1-yl)methyl)piperidin-1-yl)pyridin-2-yl)piperidine-4-carboxamide], the inhibition at 0.01 µM was 52%, the inhibition at 0.1 µM stood at 95%, the inhibition at 1 µM is 97% and the inhibition at 10 µM is 94%.
In the case of `N#Cc1ccc(N2CCC(C(=O)Nc3ccc(N4CCC(CCN5CCN(c6cc7c(cc6F)C(=O)N(C6CCC(=O)NC6=O)C7=O)CC5)CC4)cn3)CC2)cc1C(F)(F)F` (stereo not shown) [Example 192, 1-(4-cyano-3-(trifluoromethyl)phenyl)-N-(5-(4-(2-(4-(2-(2,6-dioxopiperidin-3-yl)-6-fluoro-1,3-dioxoisoindolin-5-yl)piperazin-1-yl)ethyl)piperidin-1-yl)pyridin-2-yl)piperidine-4-carboxamide], the inhibition at 0.01 µM was -11%, the inhibition at 0.1 µM is 15% and the inhibition at 1 µM amounted to 67%.
For the compound `C[C@@H]1CN(CC2CCN(c3ccc(NC(=O)C4CCN(c5ccc(C#N)c(C(F)(F)F)c5)CC4)nc3)CC2)CCN1CC1CN(c2ccc3c(c2)C(=O)N(C2CCC(=O)NC2=O)C3=O)C1` (stereo partly drawn) [Example 26, 1-(4-cyano-3-(trifluoromethyl)phenyl)-N-(5-(4-(((3R)-4-((1-(2-(2,6-dioxopiperidin-3-yl)-1,3-dioxoisoindolin-5-yl)azetidin-3-yl)methyl)-3-methylpiperazin-1-yl)methyl)piperidin-1-yl)pyridin-2-yl)piperidine-4-carboxamide], the inhibition at 0.01 µM amounted to 75%, the inhibition at 0.1 µM came out at 98% and the inhibition at 1 µM came to 98%.
As for `N#Cc1ccc(N2CCC(C(=O)Nc3ccc(CN4CCN(CC5CCN(c6ccc7c(c6)C(=O)N(C6CCC(=O)NC6=O)C7=O)CC5)CC4)cn3)CC2)cc1C(F)(F)F` (stereo not shown) [Example 162, 1-(4-cyano-3-(trifluoromethyl)phenyl)-N-(5-((4-((1-(2-(2,6-dioxopiperidin-3-yl)-1,3-dioxoisoindolin-5-yl)piperidin-4-yl)methyl)piperazin-1-yl)methyl)pyridin-2-yl)piperidine-4-carboxamide], the inhibition at 0.01 µM was determined as 62%, the inhibition at 0.1 µM was determined as 95% and the inhibition at 1 µM came out at 97%.
Regarding `N#Cc1ccc(N2CCC(C(=O)Nc3ccc(N4CCC(CN5CC6(CCN(c7ccc8c(c7)C(=O)N(C7CCC(=O)NC7=O)C8=O)CC6)C5)CC4)nc3)CC2)cc1Cl` (stereo not shown) [Example 60, 1-(3-chloro-4-cyanophenyl)-N-(6-(4-((7-(2-(2,6-dioxopiperidin-3-yl)-1,3-dioxoisoindolin-5-yl)-2,7-diazaspiro[3.5]nonan-2-yl)methyl)piperidin-1-yl)pyridin-3-yl)piperidine-4-carboxamide], the inhibition at 0.01 µM was 16%, the inhibition at 0.1 µM turned out to be 32%, the inhibition at 1 µM was 32% and the inhibition at 10 µM came out at 66%.
In the case of `N#Cc1ccc(N2CCC(C(=O)Nc3ccc(N4CC[C@@H](CN5CC6(CCN(c7ccc8c(c7)C(=O)N(C7CCC(=O)NC7=O)C8=O)CC6)C5)C4)cn3)CC2)cc1C(F)(F)F` (stereo partly drawn) [Example 61, 1-(4-cyano-3-(trifluoromethyl)phenyl)-N-(5-((3S)-3-((7-(2-(2,6-dioxopiperidin-3-yl)-1,3-dioxoisoindolin-5-yl)-2,7-diazaspiro[3.5]nonan-2-yl)methyl)pyrrolidin-1-yl)pyridin-2-yl)piperidine-4-carboxamide], the inhibition at 0.01 µM was 57%, the inhibition at 0.1 µM turned out to be 94.5%, the inhibition at 1 µM stood at 97.5% and the inhibition at 10 µM stood at 96%.
